Measurements: paper PMC5218480 (PLoS ONE, 2017)

System: MV-4-11 cells
Assay: Gene expression microarray analysis (Affymetrix PrimeView) and GSEA
Format: cell-based, human
Set-up: RFU PODN (11730768_x_at) / Fold change /veh PODN (11730768_x_at) / RFU LINC00158 (11744669_a_at) / Fold change /veh LINC00158 (11744669_a_at) / RFU DUSP10 (11751237_a_at) / Fold change /veh DUSP10 (11751237_a_at) / RFU ID3 (11757404_x_at) / Fold change /veh ID3 (11757404_x_at) / RFU PLEKHG5 (11737974_s_at) / Fold change /veh PLEKHG5 (11737974_s_at) / RFU LRRC4B (11730491_at) / Fold change /veh LRRC4B (11730491_at) / RFU GIMAP4 (11747438_a_at) / Fold change /veh GIMAP4 (11747438_a_at) / RFU KRT8 (11758183_x_at) / Fold change /veh KRT8 (11758183_x_at) / RFU CNN1 (11734310_a_at) / Fold change /veh CNN1 (11734310_a_at) / RFU VPS37D (11726825_at) / Fold change /veh VPS37D (11726825_at) / RFU C10orf10 (11716522_x_at) / Fold change /veh C10orf10 (11716522_x_at) / RFU KIR2DL2 /// KIR2DL4 /// KIR2DL5A /// KIR2DL5B /// KIR2DS1 /// KIR2DS2 /// KIR2DS3 /// KIR2DS4 /// KIR3DL3 /// KIR3DL3 /// KIR3DS1 (11738374_at) / Fold change /veh KIR2DL2 /// KIR2DL4 /// KIR2DL5A /// KIR2DL5B /// KIR2DS1 /// KIR2DS2 /// KIR2DS3 /// KIR2DS4 /// KIR3DL3 /// KIR3DL3 /// KIR3DS1 (11738374_at) / RFU C1QL1 (11718748_at) / Fold change /veh C1QL1 (11718748_at) / RFU TMPRSS4 (11747572_a_at) / Fold change /veh TMPRSS4 (11747572_a_at) / RFU HAMP (11756126_x_at) / Fold change /veh HAMP (11756126_x_at) / RFU RNFT2 (11725882_a_at) / Fold change /veh RNFT2 (11725882_a_at) / RFU NR4A2 (11747474_a_at) / Fold change /veh NR4A2 (11747474_a_at) / RFU ABCC12 (11746883_a_at) / Fold change /veh ABCC12 (11746883_a_at) / RFU TMEM136 (11760407_x_at) / Fold change /veh TMEM136 (11760407_x_at) / RFU CLDN22 /// WWC2 (11732394_at) / Fold change /veh CLDN22 /// WWC2 (11732394_at) / RFU HLA-DPB1 (11760878_x_at) / Fold change /veh HLA-DPB1 (11760878_x_at) / RFU SPINT1 (11716480_a_at) / Fold change /veh SPINT1 (11716480_a_at) / RFU GAP43 (11754022_s_at) / Fold change /veh GAP43 (11754022_s_at) / RFU A4GNT (11735810_at) / Fold change /veh A4GNT (11735810_at) / RFU PRB3 (11715151_x_at) / Fold change /veh PRB3 (11715151_x_at) / RFU TUBB4B (11761932_at) / Fold change /veh TUBB4B (11761932_at) / RFU CAPN14 (11732068_a_at) / Fold change /veh CAPN14 (11732068_a_at) / RFU TMCC2 (11721928_a_at) / Fold change /veh TMCC2 (11721928_a_at) / RFU IRGQ (11745062_a_at) / Fold change /veh IRGQ (11745062_a_at) / RFU FAM174B (11720279_a_at) / Fold change /veh FAM174B (11720279_a_at) / RFU TMPRSS4 (11748680_a_at) / Fold change /veh TMPRSS4 (11748680_a_at) / RFU FAM212B (11763350_a_at) / Fold change /veh FAM212B (11763350_a_at) / RFU PLEKHG5 (11743358_a_at) / Fold change /veh PLEKHG5 (11743358_a_at) / RFU ZSCAN30 (11745921_a_at) / Fold change /veh ZSCAN30 (11745921_a_at) / RFU CMKLR1 (11741424_a_at) / Fold change /veh CMKLR1 (11741424_a_at) / RFU LOC101060620 /// MAPK8IP1 (11723275_at) / Fold change /veh LOC101060620 /// MAPK8IP1 (11723275_at) / RFU SPTSSB (11747773_x_at) / Fold change /veh SPTSSB (11747773_x_at) / RFU PRSS12 (11739890_at) / Fold change /veh PRSS12 (11739890_at) / RFU BIN1 (11741810_x_at) / Fold change /veh BIN1 (11741810_x_at) / RFU WNT11 (11732464_a_at) / Fold change /veh WNT11 (11732464_a_at) / RFU C10orf10 (11716521_a_at) / Fold change /veh C10orf10 (11716521_a_at) / RFU C5orf56 (11738089_at) / Fold change /veh C5orf56 (11738089_at) / RFU CYB561 (11721691_x_at) / Fold change /veh CYB561 (11721691_x_at) / RFU ANKRD19P (11752326_a_at) / Fold change /veh ANKRD19P (11752326_a_at) / RFU OR2T12 /// OR2T33 /// OR2T8 (11738714_s_at) / Fold change /veh OR2T12 /// OR2T33 /// OR2T8 (11738714_s_at) / RFU VCAN (11748164_a_at) / Fold change /veh VCAN (11748164_a_at) / RFU JSRP1 (11732532_at) / Fold change /veh JSRP1 (11732532_at) / RFU KRTAP10-11 (11738290_x_at) / Fold change /veh KRTAP10-11 (11738290_x_at) / RFU MYO3A (11730013_a_at) / Fold change /veh MYO3A (11730013_a_at) / RFU EBF3 (11725865_a_at) / Fold change /veh EBF3 (11725865_a_at) / RFU CAMK2N1 (11719241_x_at) / Fold change /veh CAMK2N1 (11719241_x_at) / RFU C5orf56 (11738088_a_at) / Fold change /veh C5orf56 (11738088_a_at) / RFU OLFML3 (11715873_a_at) / Fold change /veh OLFML3 (11715873_a_at) / RFU LOC100653217 /// NTM (11731650_a_at) / Fold change /veh LOC100653217 /// NTM (11731650_a_at) / RFU MAPK11 (11762145_a_at) / Fold change /veh MAPK11 (11762145_a_at) / RFU FIZ1 (11724087_x_at) / Fold change /veh FIZ1 (11724087_x_at) / RFU OASL (11726364_x_at) / Fold change /veh OASL (11726364_x_at) / RFU SOX15 (11748057_x_at) / Fold change /veh SOX15 (11748057_x_at) / RFU CD79A (11719716_a_at) / Fold change /veh CD79A (11719716_a_at) / RFU HIST1H1D (11736915_at) / Fold change /veh HIST1H1D (11736915_at) / RFU CASKIN2 (11723855_a_at) / Fold change /veh CASKIN2 (11723855_a_at) / RFU LOC730098 (11760151_x_at) / Fold change /veh LOC730098 (11760151_x_at) / RFU OR4N2 (11742367_at) / Fold change /veh OR4N2 (11742367_at) / RFU PRRT2 (11749266_a_at) / Fold change /veh PRRT2 (11749266_a_at) / RFU SNX32 (11753110_a_at) / Fold change /veh SNX32 (11753110_a_at) / RFU CDHR5 (11726645_a_at) / Fold change /veh CDHR5 (11726645_a_at) / RFU RCAN1 (11760418_a_at) / Fold change /veh RCAN1 (11760418_a_at) / RFU FAM167A (11723789_a_at) / Fold change /veh FAM167A (11723789_a_at) / RFU FAM26E (11764081_at) / Fold change /veh FAM26E (11764081_at) / RFU ISYNA1 (11749810_s_at) / Fold change /veh ISYNA1 (11749810_s_at) / RFU ACY1 (11761880_at) / Fold change /veh ACY1 (11761880_at) / RFU 11764098_at / Fold change /veh 11764098_at / RFU SAMD14 (11745864_x_at) / Fold change /veh SAMD14 (11745864_x_at) / RFU NPB (11741838_a_at) / Fold change /veh NPB (11741838_a_at) / RFU TMPRSS6 (11731388_a_at) / Fold change /veh TMPRSS6 (11731388_a_at) / RFU KRTAP10-2 (11738614_at) / Fold change /veh KRTAP10-2 (11738614_at) / RFU ARHGAP8 /// PRR5-ARHGAP8 (11727945_x_at) / Fold change /veh ARHGAP8 /// PRR5-ARHGAP8 (11727945_x_at) / RFU KRTAP5-7 /// NADSYN1 (11734609_at) / Fold change /veh KRTAP5-7 /// NADSYN1 (11734609_at) / RFU RASL12 (11751679_a_at) / Fold change /veh RASL12 (11751679_a_at) / RFU CDKN2B (11736163_a_at) / Fold change /veh CDKN2B (11736163_a_at) / RFU PRF1 (11729649_at) / Fold change /veh PRF1 (11729649_at) / RFU, ZNF638 /// ZNF638-IT1 / Fold change vs veh, ZNF638 /// ZNF638-IT1 / RFU, PANK3 / Fold change vs veh, PANK3 / RFU, SH3YL1 / Fold change vs veh, SH3YL1 / RFU, ZEB2 / Fold change vs veh, ZEB2 / RFU, NRIP1 / Fold change vs veh, NRIP1 / RFU, PTTG1IP / Fold change vs veh, PTTG1IP / RFU, CAPN2 / Fold change vs veh, CAPN2 / RFU, MED14 / Fold change vs veh, MED14 / RFU, SNORA58 / Fold change vs veh, SNORA58 / RFU, C1orf63 / Fold change vs veh, C1orf63 / RFU, LRRFIP1 / Fold change vs veh, LRRFIP1 / RFU, NDUFAF7 / Fold change vs veh, NDUFAF7 / RFU, SLC12A2 / Fold change vs veh, SLC12A2 / RFU, IBTK / Fold change vs veh, IBTK / RFU, ESF1 / Fold change vs veh, ESF1 / Fold change vs veh, TMEM50B / RFU, TAOK1 / Fold change vs veh, TAOK1 / RFU, ACBD3 / Fold change vs veh, ACBD3 / RFU, TMA16 / Fold change vs veh, TMA16 / RFU, RWDD3 / Fold change vs veh, RWDD3 / RFU, BCAT1 / Fold change vs veh, BCAT1 / RFU, EDEM3 / Fold change vs veh, EDEM3 / RFU, TMEM33 / Fold change vs veh, TMEM33 / RFU, WDR75 / Fold change vs veh, WDR75 / RFU, AHCTF1 / Fold change vs veh, AHCTF1 / RFU, TFRC / Fold change vs veh, TFRC / RFU, ZDHHC17 / Fold change vs veh, ZDHHC17 / RFU, NOM1 / Fold change vs veh, NOM1 / RFU, ARL8B / Fold change vs veh, ARL8B / RFU, ZBTB11 / Fold change vs veh, ZBTB11 / RFU, TAMM41 / Fold change vs veh, TAMM41 / RFU, KIAA1704 /// LOC100996395 / Fold change vs veh, KIAA1704 /// LOC100996395 / RFU, ING1 / Fold change vs veh, ING1 / RFU, TRMT61B / Fold change vs veh, TRMT61B / RFU, FUBP3 / Fold change vs veh, FUBP3 / RFU, TP53 / Fold change vs veh, TP53 / RFU, TNKS2 / Fold change vs veh, TNKS2 / RFU, ZFP14 / Fold change vs veh, ZFP14 / RFU, ACTR2 / Fold change vs veh, ACTR2 / RFU, PPP3R1 / Fold change vs veh, PPP3R1 / RFU, PIK3R1 / Fold change vs veh, PIK3R1 / RFU, HNRNPA1 / Fold change vs veh, HNRNPA1 / RFU, RNF170 / Fold change vs veh, RNF170 / RFU, ZNF28 / Fold change vs veh, ZNF28 / RFU, RNGTT / Fold change vs veh, RNGTT / RFU, OGT / Fold change vs veh, OGT / RFU, BRD1 / Fold change vs veh, BRD1 / RFU, MARS / Fold change vs veh, MARS / RFU, ZNF655 / Fold change vs veh, ZNF655 / RFU, FAHD1 / Fold change vs veh, FAHD1 / RFU, BDP1 / Fold change vs veh, BDP1 / RFU, LRRCC1 / Fold change vs veh, LRRCC1 / RFU, ARID1A / Fold change vs veh, ARID1A / RFU, ZNF146 / Fold change vs veh, ZNF146 / RFU, ZNF330 / Fold change vs veh, ZNF330 / RFU, GPN3 / Fold change vs veh, GPN3 / RFU, C9orf123 / Fold change vs veh, C9orf123 / RFU, N4BP2L2 / Fold change vs veh, N4BP2L2 / RFU, ARFIP1 / Fold change vs veh, ARFIP1 / RFU, FAM179B / Fold change vs veh, FAM179B / RFU, BCL10 / Fold change vs veh, BCL10 / RFU, UHRF1BP1L / Fold change vs veh, UHRF1BP1L / RFU, BET1 / Fold change vs veh, BET1 / RFU, CNOT2 / Fold change vs veh, CNOT2 / RFU, ZNF268 / Fold change vs veh, ZNF268 / Fold change vs veh, ZNF507 / RFU, DGCR2 / Fold change vs veh, DGCR2 / RFU, WDSUB1 / Fold change vs veh, WDSUB1 / Fold change vs veh, HSP90B1 /// MIR3652 / RFU, ADSS / Fold change vs veh, ADSS / RFU, GK / Fold change vs veh, GK / RFU, ZNF148 / Fold change vs veh, ZNF148 / RFU, TAF9 / Fold change vs veh, TAF9 / RFU, SLC1A5 / Fold change vs veh, SLC1A5 / RFU, SLMO2 / Fold change vs veh, SLMO2 / RFU, ABCC4 / Fold change vs veh, ABCC4 / RFU, LOC101060439 /// RAP1B / Fold change vs veh, LOC101060439 /// RAP1B / RFU, RFX7 / Fold change vs veh, RFX7 / RFU, GTPBP10 / Fold change vs veh, GTPBP10 / RFU, CNEP1R1 / Fold change vs veh, CNEP1R1 / RFU, BIVM-ERCC5 /// ERCC5 / Fold change vs veh, BIVM-ERCC5 /// ERCC5 / RFU, ILF3 / Fold change vs veh, ILF3 / RFU 11762660_at / Fold change /veh 11762660_at / RFU VCAN (11757783_s_at) / Fold change /veh VCAN (11757783_s_at) / RFU DDX43 (11728927_at) / Fold change /veh DDX43 (11728927_at) / RFU KRT8 (11758188_x_at) / Fold change /veh KRT8 (11758188_x_at) / RFU NKD1 (11759106_at) / Fold change /veh NKD1 (11759106_at) / RFU SRD5A1 (11742802_a_at) / Fold change /veh SRD5A1 (11742802_a_at) / RFU TPSAB1 /// TPSB2 (11721975_s_at) / Fold change /veh TPSAB1 /// TPSB2 (11721975_s_at) / RFU GSTM3 (11746129_a_at) / Fold change /veh GSTM3 (11746129_a_at) / RFU IL23R (11737362_x_at) / Fold change /veh IL23R (11737362_x_at) / RFU TMEM51 (11727254_a_at) / Fold change /veh TMEM51 (11727254_a_at) / RFU PIWIL2 (11732686_x_at) / Fold change /veh PIWIL2 (11732686_x_at) / RFU ORM1 (11744905_x_at) / Fold change /veh ORM1 (11744905_x_at) / RFU CCDC152 (11743942_at) / Fold change /veh CCDC152 (11743942_at) / RFU ECM1 (11717891_a_at) / Fold change /veh ECM1 (11717891_a_at) / RFU IL23R (11748794_a_at) / Fold change /veh IL23R (11748794_a_at) / RFU TNFAIP8L3 (11732012_x_at) / Fold change /veh TNFAIP8L3 (11732012_x_at) / RFU MBOAT4 (11741988_at) / Fold change /veh MBOAT4 (11741988_at) / RFU 11764193_at / Fold change /veh 11764193_at / RFU TMEM53 (11763286_at) / Fold change /veh TMEM53 (11763286_at) / RFU MAGEB2 (11727129_at) / Fold change /veh MAGEB2 (11727129_at) / RFU TMEM200A (11744735_a_at) / Fold change /veh TMEM200A (11744735_a_at) / RFU CCDC152 (11751479_a_at) / Fold change /veh CCDC152 (11751479_a_at) / RFU FAM211A (11726209_a_at) / Fold change /veh FAM211A (11726209_a_at) / RFU RGS16 (11746705_a_at) / Fold change /veh RGS16 (11746705_a_at) / RFU VCAN (11755009_s_at) / Fold change /veh VCAN (11755009_s_at) / RFU RHOB (11743442_s_at) / Fold change /veh RHOB (11743442_s_at) / RFU RGS16 (11720943_a_at) / Fold change /veh RGS16 (11720943_a_at) / RFU RGS16 (11720944_at) / Fold change /veh RGS16 (11720944_at) / RFU, VPS4B / Fold change vs veh, VPS4B / RFU, CREB1 / Fold change vs veh, CREB1 / RFU, DNAJC13 / Fold change vs veh, DNAJC13 / RFU, GNAQ / Fold change vs veh, GNAQ / RFU, CDK5R1 / Fold change vs veh, CDK5R1 / RFU, ZRANB3 / Fold change vs veh, ZRANB3 / RFU, CUL4A / Fold change vs veh, CUL4A / RFU, CCNY / Fold change vs veh, CCNY / RFU, UFL1 / Fold change vs veh, UFL1 / RFU, COG3 / Fold change vs veh, COG3 / RFU, DIAPH2 / Fold change vs veh, DIAPH2 / RFU, SKA2 / Fold change vs veh, SKA2 / RFU, AFF3 / Fold change vs veh, AFF3 / RFU, LMF1 / Fold change vs veh, LMF1 / RFU, IPO11 / Fold change vs veh, IPO11 / RFU, DFFB / Fold change vs veh, DFFB / RFU, FOXP1 / Fold change vs veh, FOXP1 / RFU, CARD8 / Fold change vs veh, CARD8 / RFU, STRN3 / Fold change vs veh, STRN3 / RFU, ADK / Fold change vs veh, ADK / RFU, RASSF2 / Fold change vs veh, RASSF2 / RFU, WIPF1 / Fold change vs veh, WIPF1 / RFU, LARP1B / Fold change vs veh, LARP1B / RFU, RASA1 / Fold change vs veh, RASA1 / RFU, RB1 / Fold change vs veh, RB1 / RFU, PPFIA1 / Fold change vs veh, PPFIA1 / RFU, MAT2A / Fold change vs veh, MAT2A / RFU, CCT5 / Fold change vs veh, CCT5 / RFU, WDR92 / Fold change vs veh, WDR92 / RFU, CUX1 / Fold change vs veh, CUX1 / RFU, TTC7A / Fold change vs veh, TTC7A / RFU, TMEM135 / Fold change vs veh, TMEM135 / RFU, DEPTOR / Fold change vs veh, DEPTOR / RFU, CPM / Fold change vs veh, CPM / RFU, DNAJB6 / Fold change vs veh, DNAJB6 / RFU, CACNA2D3 / Fold change vs veh, CACNA2D3 / RFU, DTX4 / Fold change vs veh, DTX4 / RFU, TFCP2 / Fold change vs veh, TFCP2 / RFU, GMCL1 /// GMCL1P1 / Fold change vs veh, GMCL1 /// GMCL1P1 / RFU, AEBP2 / Fold change vs veh, AEBP2 / RFU, SNHG1 /// SNORD22 /// SNORD25 /// SNORD26 /// SNORD27 /// SNORD28 /// SNORD29 /// SNORD31 / Fold change vs veh, SNHG1 /// SNORD22 /// SNORD25 /// SNORD26 /// SNORD27 /// SNORD28 /// SNORD29 /// SNORD31 / Fold change (Aza/veh), C12orf56 (ProbeSet 11735607_a_at) / Fold change (ACY-1035/veh), C12orf56 (ProbeSet 11735607_a_at) / Fold change (Aza/veh), FGFR1OP (ProbeSet 11751329_s_at) / Fold change (ACY-1035/veh), FGFR1OP (ProbeSet 11751329_s_at) / Fold change (Aza/veh), VPS36 (ProbeSet 11739960_a_at) / Fold change (ACY-1035/veh), VPS36 (ProbeSet 11739960_a_at) / RFU SYPL1 (11715823_x_at) / Fold change /veh SYPL1 (11715823_x_at) / RFU IGFBP7 (11715501_s_at) / Fold change /veh IGFBP7 (11715501_s_at) / RFU REEP3 (11722064_at) / Fold change /veh REEP3 (11722064_at) / RFU IGLL1 (11728026_x_at) / Fold change /veh IGLL1 (11728026_x_at): dose or concentration left out as unconfirmed
Details: MV-4-11 cells, 48 hours

## Nc1ncn([C@@H]2O[C@H](CO)[C@@H](O)[C@H]2O)c(=O)n1 [azacitidine]
  Fold change /veh MAPK11 (11762145_a_at): 1.03
